Series [1] in a line: Solubility in various solvents. The series is classed as physicochemical.
For series [2], the system named is mouse. Description: Acute toxicity in mouse. The series is classed as in vivo. The note with it: ip., 200 mg/kg in DMSO/water, two groups of 3. As for the experimental part:
The acute toxicity of cytophagin was determined by using mouse as test animals.

The test system of series [3] is various Gram-positive bacteria. Description: Activity against the growth of Gram-positive bacteria (Table 1). The series is classed as cell-based. As to conditions: qualitative, from Table 1. An excerpt:
(§1) **Determined by agar dilution method using a bouilon medium (pH:7).

Series [4] concerns Micrococcus lysodeikticus IFO 3333. Briefly: Minimum growth inhibitory concentration, agar dilution method. As to conditions: pH 7. The series is classed as cell-based.
Text: as §1
On the technique in general: In agar dilution the substance is mixed into plates at graded concentrations.

Series [5] has as its system Mycobacterium smegmatis ATCC 607. Described as above. The class given is cell-based. As to conditions: pH 7.
Text: as §1

Series [6] concerns Bacillus subtilis PCI 219. Described as above. The class given is cell-based. As to conditions: pH 7.
Text: as §1

For series [7], the system named is Pseudomonas aeruginosa A 3. The series is described as above. The class given is cell-based. The note with it: pH 7.
Text: as §1

In series [8] the test system is Staphylococcus sp M-XX-0105. The series is described as above. The series is classed as cell-based. As to conditions: Staphylococcus sp M-XX-0105, resistant to amikacin, tobramycin and DKB, pH 7.
Text: as §1

The subject of series [9] is Bacillus subtilis NRRL B-558. The series is described as above. As to conditions: pH 7. The class given is cell-based.
Text: as §1

Series [10] concerns Sarcina lutea PCI 1001. Described as above. The class given is cell-based. The note with it: pH 7.
Text: as §1

Series [11] deals with Candida albicans 3147. Described as above. The series is classed as cell-based. The note with it: pH 7.
Text: as §1

In series [12] the test system is Staphylococcus aureus FDA 209P. The description is as above. The series is classed as cell-based. The note with it: bouillon medium pH 7.
Text: as §1

Series [13] deals with Escherichia coli K-12. The series is described as above. The class given is cell-based. The note with it: pH 7.
Text: as §1

Series [14] deals with Staphylococcus aureus MS 8800. The description is as above. The note with it: Staphylococcus aureus MS 8800, resistant to penicillin, tetracyclin, streptomycin and erythromycin, pH 7. The class given is cell-based.
Text: as §1

A word on the MIC: it is the least concentration at which growth counts as inhibited. High values mean weaker potency, low ones greater potency. On to cytophagin, for which the Solubility result is given as “Readily soluble” in series [1] (acetic acid); “hardly soluble” in series [1] (acetone); “hardly soluble” in [1] (chloroform); “Readily soluble” in series [1] (dimethylsulfoxide); “substantially soluble” in series [1] (ethanol); “hardly soluble” in [1] (ethyl acetate). Besides, the Solubility entry is given as “hardly soluble” in series [1] (ethyl ether), “substantially soluble” in series [1] (methanol) and “hardly soluble” in [1] (water). The “acute toxicity (survival)” value in [2] is “All of them (two groups, each consisting of 3 mouse) survived”. Further, the “activity against the growth of various Gram-positive bacteria” value in series [3] is “strongly active”. The MIC is 0.1 µg/mL in [4]; greater than 100 µg/mL in series [5]; 1.56 µg/mL in series [6]; greater than 100 µg/mL in series [7]; 2.5 µg/mL in series [8]; 1.56 µg/mL in series [9]. Besides, the MIC is 0.1 µg/mL in series [10]; 50 µg/mL in series [11]; 1.56 µg/mL in series [12]; greater than 100 µg/mL in series [13]; 1.56 µg/mL in series [14].

(Values after patent US4393047A, “Antibiotic cytophagin and a process for producing the same” (Microbiochemical Research Foundation, priority 1981, dated 1983).)
